Reference: ChEMBL document CHEMBL5385942, “C3-Symmetric ligands in drug design: An overview of the challenges and opportunities ahead” (Bioorg Med Chem Lett, 2024)
pEC50: −log10 of the molar value. Calls of active or inactive are those of the source. No cut-off for these calls is given here.

How the values were obtained:
[1] = tested on: Human alphaherpesvirus 1; test: Antiviral activity against HSV-1 infected in African green monkey Vero cells by plaque reduction assay; type: functional, organism-based; conditions: Human alphaherpesvirus 1, Vero
[2] = tested on: Quadruplex DNA; test: Stabilization of human G4 quadruplex telomeric22 DNA assessed as change in temperature at 10 uM by FRET assay; type: nucleic-acid assay
[3] = tested on: Quadruplex DNA; test: Stabilization of human G4 quadruplex telomeric22 DNA assessed as change in temperature at 5 uM by FRET assay; type: nucleic-acid assay
[4] = tested on: Quadruplex DNA; test: Stabilization of human G4 quadruplex telomeric22 DNA assessed as change in temperature at 1 uM by FRET assay; type: nucleic-acid assay
[5] = tested on: Quadruplex DNA; test: Stabilization of human G4 quadruplex telomeric22 DNA assessed as change in temperature at 2 uM by FRET assay; type: nucleic-acid assay
[6] = tested on: dsDNA; test: Stabilization of human duplex DNA assessed as change in temperature at 1 uM by FRET assay; type: nucleic-acid assay
[7] = tested on: Micrococcus luteus; test: Antimicrobial activity against Micrococcus luteus ATCC 9341 assessed as zone of inhibition by […]; type: functional
[8] = tested on: Bacillus subtilis; test: Antimicrobial activity against Bacillus subtilis MTCC 441 assessed as zone of inhibition by […]; type: functional
[9] = tested on: Staphylococcus aureus; test: Antimicrobial activity against Staphylococcus aureus MTCC 96 assessed as zone of inhibition by […]; type: functional

| SMILES | pEC50 [1] | ΔTm [4] [°C] | ΔTm [5] [°C] | ΔTm [6] [°C] | further results |
| --- | --- | --- | --- | --- | --- |
| c1ccc2c(c1)[nH]c1ccc(-c3cc(-c4ccc5[nH]c6ccccc6c5c4)cc(-c4ccc5[nH]c6ccccc6c5c4)c3)cc12 |  | 1.1 |  |  | ΔTm [2]: 2.6 °C; ΔTm [3]: 4 °C |
| c1ccc2c(c1)c1cc(-c3cc(-c4ccc5c(c4)c4ccccc4n5CCN4CCOCC4)cc(-c4ccc5c(c4)c4ccccc4n5CCN4CCOCC4)c3)ccc1n2CCN1CCOCC1 |  |  |  |  | Activity [2]: inactive; Activity [3]: inactive; Activity [4]: inactive |
| CCNCC(=O)Nc1ccc(-c2cn(Cc3cc(Cn4cc(-c5ccc(NC(=O)CNCC)cc5)nn4)cc(Cn4cc(-c5ccc(NC(=O)CNCC)cc5)nn4)c3)nn2)cc1 |  | 0 | 1 | 0 |  |
| CCCOCCNCCCC(=O)Nc1ccc(-c2cn(Cc3cc(Cn4cc(-c5ccc(NC(=O)CCCNCCOCCC)cc5)nn4)cc(Cn4cc(-c5ccc(NC(=O)CCCNCCOCCC)cc5)nn4)c3)nn2)cc1 |  | 0 | 0 | 0 |  |
| CCCCCCNCC(=O)Nc1ccc(-c2cn(Cc3cc(Cn4cc(-c5ccc(NC(=O)CNCCCCCC)cc5)nn4)cc(Cn4cc(-c5ccc(NC(=O)CNCCCCCC)cc5)nn4)c3)nn2)cc1 |  | 2 | 2 | 0 |  |
| Cc1ccc(C2CC(c3ccc(Oc4nc(Oc5ccc(C6=NN(C(N)=S)C(c7ccc(C)cc7)C6)cc5)nc(Oc5ccc(C6=NN(C(N)=S)C(c7ccc(C)cc7)C6)cc5)n4)cc3)=NN2C(N)=S)cc1 (stereo unspecified) |  |  |  |  | inhibition zone (IZ) [7]: 20 mm; inhibition zone (IZ) [8]: 9 mm; inhibition zone (IZ) [9]: 11 mm |
| O=C(/C=C/c1cccc([N+](=O)[O-])c1)c1ccc(Oc2nc(Oc3ccc(C(=O)/C=C/c4cccc([N+](=O)[O-])c4)cc3)nc(Oc3ccc(C(=O)/C=C/c4cccc([N+](=O)[O-])c4)cc3)n2)cc1 |  |  |  |  | inhibition zone (IZ) [7]: 5 mm; inhibition zone (IZ) [8]: 7 mm |
| Clc1ccc(CNc2nc(NCc3ccc(Cl)cc3)nc(NCc3ccc(Cl)cc3)n2)cc1 | 4.96 |  |  |  |  |
| CC(C)COc1nc(N)nc(OCC(C)C)n1 | < 4.00 |  |  |  |  |
| CCCCCNCC(=O)Nc1ccc(-c2cn(Cc3cc(Cn4cc(-c5ccc(NC(=O)CNCCCCC)cc5)nn4)cc(Cn4cc(-c5ccc(NC(=O)CNCCCCC)cc5)nn4)c3)nn2)cc1 |  | 0 | 0 | 0 |  |
| CNCCC(=O)Nc1ccc(-c2cn(Cc3cc(Cn4cc(-c5ccc(NC(=O)CCNC)cc5)nn4)cc(Cn4cc(-c5ccc(NC(=O)CCNC)cc5)nn4)c3)nn2)cc1 |  |  |  | 0 |  |
| CCCCCNCCCC(=O)Nc1ccc(-c2cn(Cc3cc(Cn4cc(-c5ccc(NC(=O)CCCNCCCCC)cc5)nn4)cc(Cn4cc(-c5ccc(NC(=O)CCCNCCCCC)cc5)nn4)c3)nn2)cc1 |  | 2 | 5 | 0 |  |
| FC(F)(F)c1ccc(CNc2nc(NCc3ccc(C(F)(F)F)cc3)nc(NCc3ccc(C(F)(F)F)cc3)n2)cc1 | 5.13 |  |  |  |  |
| CCCOCCNCC(=O)Nc1ccc(-c2cn(Cc3cc(Cn4cc(-c5ccc(NC(=O)CNCCOCCC)cc5)nn4)cc(Cn4cc(-c5ccc(NC(=O)CNCCOCCC)cc5)nn4)c3)nn2)cc1 |  | 0 | 0 | 0 |  |
| c1ccc2c(c1)c1cc(-c3cc(-c4ccc5c(c4)c4ccccc4n5CCCN4CCOCC4)cc(-c4ccc5c(c4)c4ccccc4n5CCCN4CCOCC4)c3)ccc1n2CCCN1CCOCC1 |  |  |  |  | Activity [2]: inactive; Activity [3]: inactive; Activity [4]: inactive |
| CCNCCC(=O)Nc1ccc(-c2cn(Cc3cc(Cn4cc(-c5ccc(NC(=O)CCNCC)cc5)nn4)cc(Cn4cc(-c5ccc(NC(=O)CCNCC)cc5)nn4)c3)nn2)cc1 |  |  |  | 0 |  |
| O=C(/C=C/c1ccc(Cl)cc1)c1ccc(Oc2nc(Oc3ccc(C(=O)/C=C/c4ccc(Cl)cc4)cc3)nc(Oc3ccc(C(=O)/C=C/c4ccc(Cl)cc4)cc3)n2)cc1 |  |  |  |  | inhibition zone (IZ) [7]: 8 mm; inhibition zone (IZ) [8]: 7 mm |
| NC(=S)N1N=C(c2ccc(Oc3nc(Oc4ccc(C5=NN(C(N)=S)C(c6ccc([N+](=O)[O-])cc6)C5)cc4)nc(Oc4ccc(C5=NN(C(N)=S)C(c6ccc([N+](=O)[O-])cc6)C5)cc4)n3)cc2)CC1c1ccc([N+](=O)[O-])cc1 (stereo unspecified) |  |  |  |  | inhibition zone (IZ) [8]: 10 mm |
| c1ccc2c(c1)c1cc(-c3cc(-c4ccc5c(c4)c4ccccc4n5CCN4CCCCC4)cc(-c4ccc5c(c4)c4ccccc4n5CCN4CCCCC4)c3)ccc1n2CCN1CCCCC1 |  |  |  |  | ΔTm [2]: 4.9 °C; ΔTm [3]: 2.3 °C; Activity [4]: inactive |
| CCCOCCNCCC(=O)Nc1ccc(-c2cn(Cc3cc(Cn4cc(-c5ccc(NC(=O)CCNCCOCCC)cc5)nn4)cc(Cn4cc(-c5ccc(NC(=O)CCNCCOCCC)cc5)nn4)c3)nn2)cc1 |  | 0 | 0 | 0 |  |
| CNCCCC(=O)Nc1ccc(-c2cn(Cc3cc(Cn4cc(-c5ccc(NC(=O)CCCNC)cc5)nn4)cc(Cn4cc(-c5ccc(NC(=O)CCCNC)cc5)nn4)c3)nn2)cc1 |  | 2 | 7 | 0 |  |

Now from value to compound, other results behind:

| pEC50 [1] | ΔTm [4] [°C] | ΔTm [5] [°C] | ΔTm [6] [°C] | SMILES | further results |
| --- | --- | --- | --- | --- | --- |
| 4.88 |  |  |  | c1ccc(CNc2nc(NCc3ccccc3)nc(NCc3ccccc3)n2)cc1 |  |
|  | 4 | 11 | 0 | CCCCCCNCCC(=O)Nc1ccc(-c2cn(Cc3cc(Cn4cc(-c5ccc(NC(=O)CCNCCCCCC)cc5)nn4)cc(Cn4cc(-c5ccc(NC(=O)CCNCCCCCC)cc5)nn4)c3)nn2)cc1 |  |
|  | 5.1 |  |  | CCN(CC)CCCn1c2ccccc2c2cc(-c3cc(-c4ccc5c(c4)c4ccccc4n5CCCN(CC)CC)cc(-c4ccc5c(c4)c4ccccc4n5CCCN(CC)CC)c3)ccc21 | ΔTm [2]: 11.5 °C; ΔTm [3]: 8.4 °C |
|  | 2.8 |  |  | CCN(CC)CCn1c2ccccc2c2cc(-c3cc(-c4ccc5c(c4)c4ccccc4n5CCN(CC)CC)cc(-c4ccc5c(c4)c4ccccc4n5CCN(CC)CC)c3)ccc21 | ΔTm [2]: 3.3 °C; ΔTm [3]: 4.9 °C |
| 4.53 |  |  |  | CC(C)CNc1nc(NCC(C)C)nc(NCC(C)C)n1 |  |
| 4.55 |  |  |  | COc1ccc(CNc2nc(NCc3ccc(OC)c(OC)c3OC)nc(NCc3ccc(OC)c(OC)c3OC)n2)c(OC)c1OC |  |
| < 4.00 |  |  |  | COc1ccc(CNc2nc(NCc3ccc(OC)cc3)nc(NCc3ccc(OC)cc3)n2)cc1 |  |
| 4.61 |  |  |  | FC(F)CNc1nc(NCC(F)F)nc(NCC(F)F)n1 |  |
| < 4.00 |  |  |  | Nc1nc(OC(C(F)(F)F)C(F)(F)F)nc(OC(C(F)(F)F)C(F)(F)F)n1 |  |
|  | 2.6 |  |  | c1ccc2c(c1)c1cc(-c3cc(-c4ccc5c(c4)c4ccccc4n5CCCN4CCCC4)cc(-c4ccc5c(c4)c4ccccc4n5CCCN4CCCC4)c3)ccc1n2CCCN1CCCC1 | ΔTm [2]: 17.5 °C; ΔTm [3]: 14.3 °C |
| 4.56 |  |  |  | CC(C)Nc1nc(NC(C)C)nc(NC(C)C)n1 |  |
|  | 1 | 1 | 0 | CCCCCCNCCCC(=O)Nc1ccc(-c2cn(Cc3cc(Cn4cc(-c5ccc(NC(=O)CCCNCCCCCC)cc5)nn4)cc(Cn4cc(-c5ccc(NC(=O)CCCNCCCCCC)cc5)nn4)c3)nn2)cc1 |  |
|  | 1 | 7 | 0 | CCCCCNCCC(=O)Nc1ccc(-c2cn(Cc3cc(Cn4cc(-c5ccc(NC(=O)CCNCCCCC)cc5)nn4)cc(Cn4cc(-c5ccc(NC(=O)CCNCCCCC)cc5)nn4)c3)nn2)cc1 |  |
|  | 6 |  |  | c1ccc2c(c1)c1cc(-c3cc(-c4ccc5c(c4)c4ccccc4n5CCCN4CCCCC4)cc(-c4ccc5c(c4)c4ccccc4n5CCCN4CCCCC4)c3)ccc1n2CCCN1CCCCC1 | ΔTm [2]: 19.9 °C; ΔTm [3]: 17 °C |
| < 4.00 |  |  |  | CC(C)(C)Oc1nc(N)nc(OC(C)(C)C)n1 |  |
|  | 1 | 2 | 0 | CCNCCCC(=O)Nc1ccc(-c2cn(Cc3cc(Cn4cc(-c5ccc(NC(=O)CCCNCC)cc5)nn4)cc(Cn4cc(-c5ccc(NC(=O)CCCNCC)cc5)nn4)c3)nn2)cc1 |  |
| 5.27 |  |  |  | c1cc2c(cc1CNc1nc(NCc3ccc4c(c3)OCO4)nc(NCc3ccc4c(c3)OCO4)n1)OCO2 |  |
| 4.41 |  |  |  | Cc1ccc(CNc2nc(NCc3ccc(C)cc3)nc(NCc3ccc(C)cc3)n2)cc1 |  |
| < 4.00 |  |  |  | COc1ccc(CNc2nc(NCc3ccc(OC)cc3OC)nc(NCc3ccc(OC)cc3OC)n2)c(OC)c1 |  |
| 6.01 |  |  |  | COc1ccc(CNc2nc(NCc3ccc(OC)c(OC)c3)nc(NCc3ccc(OC)c(OC)c3)n2)cc1OC |  |
|  | 1.9 |  |  | c1ccc2c(c1)c1cc(-c3cc(-c4ccc5c(c4)c4ccccc4n5CCN4CCCC4)cc(-c4ccc5c(c4)c4ccccc4n5CCN4CCCC4)c3)ccc1n2CCN1CCCC1 | ΔTm [2]: 13 °C; ΔTm [3]: 10 °C |
|  | 1 | 1 | 0 | CNCC(=O)Nc1ccc(-c2cn(Cc3cc(Cn4cc(-c5ccc(NC(=O)CNC)cc5)nn4)cc(Cn4cc(-c5ccc(NC(=O)CNC)cc5)nn4)c3)nn2)cc1 |  |
